Patent publication EP2801357A1, “Carboxylated stilbenes for activating AMPK and sirtuins” (IMD Natural Solutions GmbH, priority 2013, dated 2014)
Read-outs that look alike come from different tables or passages of the source.

Target: T1, human sirtuin-1 (Sirt1) (Homo sapiens, UniProt Q96EB6)
T1 construct: purchased BioMol, Hamburg, Germany
T1 sequence (Q96EB6 1-747): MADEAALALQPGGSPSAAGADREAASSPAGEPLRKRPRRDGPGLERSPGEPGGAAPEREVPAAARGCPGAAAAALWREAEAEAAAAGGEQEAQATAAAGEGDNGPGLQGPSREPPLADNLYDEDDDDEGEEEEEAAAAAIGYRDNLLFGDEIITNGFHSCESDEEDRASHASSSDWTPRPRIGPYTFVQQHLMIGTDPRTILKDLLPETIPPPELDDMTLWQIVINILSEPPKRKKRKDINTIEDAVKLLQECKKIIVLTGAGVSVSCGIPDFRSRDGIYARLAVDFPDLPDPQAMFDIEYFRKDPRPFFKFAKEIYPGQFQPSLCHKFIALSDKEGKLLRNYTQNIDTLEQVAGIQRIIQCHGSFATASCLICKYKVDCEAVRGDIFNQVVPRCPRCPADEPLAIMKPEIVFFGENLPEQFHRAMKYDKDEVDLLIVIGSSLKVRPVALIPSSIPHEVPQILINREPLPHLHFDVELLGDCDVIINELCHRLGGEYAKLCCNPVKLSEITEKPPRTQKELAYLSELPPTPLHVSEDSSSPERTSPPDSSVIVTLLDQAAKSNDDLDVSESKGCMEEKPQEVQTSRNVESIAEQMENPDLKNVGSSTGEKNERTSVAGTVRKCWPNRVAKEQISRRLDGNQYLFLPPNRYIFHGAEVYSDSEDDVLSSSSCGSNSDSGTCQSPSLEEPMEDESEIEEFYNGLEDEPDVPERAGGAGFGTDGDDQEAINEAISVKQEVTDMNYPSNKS
Test: SIRT1 Fluorimetric Drug Discovery Kit, Sirt1 activation
Format: biochemical
Protocol: Compounds were tested for Sirt1 activation using the SIRT1 Fluorimetric Drug Discovery Kit (BioMol, Hamburg, Germany), Testing was carried out in duplicate following the manufacturer's instructions. Assay medium: 50mM Tris-HCl pH 8.0, 137 mM NaCl, 2.7 mM KCI, 1 mM MgCl2, 1 mg/ml bovine serum albumin (BSA). Stock solutions of the test compounds (10 mM in DMSO) were used, yielding a final concentration of 10 µM in the assay plate. Readout was obtained by measuring the fluorescence in a microtiter plate reader (excitation: 380 nm; detection: 440 nm).
The agonistic effect on Sirt1 was determined at different concentrations. For this purpose, the test compound stock solutions were diluted to yield concentrations of 0.3, 1, 3, 10 and 30 µM, respectively, in the assay, which was performed as described above. The compound of structure (I-1) was selected for this experiment.
The selectivity of the agonistic effect of the compound of formula (I-1) on different sirtuin isoforms was investigated. For this purpose, in vitro testing was performed as described in Example 1 using the respective SIRT1 Fluorimetric Drug Discovery Kit, SIRT2 Fluorimetric Drug Discovery Kit, and SIRT3 Fluorimetric Drug Discovery Kit (each from BioMol, Hamburg, Germany). […] The dose-response effect is slightly lesser on Sirt3. Table 3: Activity on Sirt1

How did the “Fold increase in sirt1 activity versus control” value (Example 1(a), 10 µM, trans-resveratrol as control (1.0)) turn out when `CCOC(=O)c1c(O)cccc1/C=C/c1ccc(OCC)cc1` [(I-1)] was run?
The value was 23.9.

And the remaining activity at 0.3 µM (Example 1(b), Table 2, 0.3 µM, read-out: Activity [% control])?
The remaining activity at 0.3 µM was 147%.

What about the remaining activity at 1 µM (Example 1(b), Table 2, 1.0 µM, read-out: Activity [% control]) of the same compound?
Its remaining activity at 1 µM is 233%.

What about the remaining activity at 3 µM (Example 1(b), Table 2, 3.0 µM, read-out: Activity [% control]) of the same compound?
The remaining activity at 3 µM was 434%.

And the remaining activity at 10 µM (Example 1(b), Table 2, 10.0 µM, read-out: Activity [% control])?
Its remaining activity at 10 µM is 626%.

What about the EC300 (Example 1(b), concentration that gave 3-times the basal response of the enzyme) of the same compound?
Its EC300 is 2.0 µM.

And the remaining activity at 0.3 µM (Example 2, Table 3, 0.3 µM, read-out: Activity [% control])?
The remaining activity at 0.3 µM was 111%.

What about the remaining activity at 1 µM (Example 2, Table 3, 1.0 µM, read-out: Activity [% control]) of the same compound?
The remaining activity at 1 µM was 121%.

What about the remaining activity at 3 µM (Example 2, Table 3, 3.0 µM, read-out: Activity [% control]) of the same compound?
The remaining activity at 3 µM was 168%.

And the remaining activity at 10 µM (Example 2, Table 3, 10.0 µM, read-out: Activity [% control])?
Its remaining activity at 10 µM is 256%.

What about the remaining activity at 30 µM (Example 2, Table 3, 30.0 µM, read-out: Activity [% control]) of the same compound?
The remaining activity at 30 µM was 515%.

And the EC300 (Example 2, Table 6, Sirt1)?
Its EC300 is 12.9 µM.
